The subject of data set [1] is HIAP1 mRNA. Kind of data set: HIAP1 mRNA in SF295 cells, basal conditions (TaqMan). The settings on record: for HIAP1 mRNA levels (in words): SF295 cells (FIG. 21); for decrease of HIAP1 mRNA compared to mock or scrambled survivin control: SF295 cells, six hours after transfection. In kind it is cell-based, human. Also on record: decrease of HIAP1 mRNA compared to mock or scrambled survivin control: concentration or dose not given beside the values. The procedure:
RNA was extracted from cells lysed in RLT buffer (QIAGEN, Valencia, Calif.), and purified using QIAGEN RNeasy columns/kits. Real-time quantitative PCR was performed on a Perkin-Elmer ABI 7700 Prism PCR machine. RNA was reverse transcribed and amplified according to the TaqMan Universal PCR Master Mix protocol of PE Biosystems, using primers and probes designed to specifically recognize XIAP, HIAP1, survivin, or GAPDH. For human survivin, the forward primer was 5′-[…]-3′ (SEQ ID NO: 263), the reverse primer was 5′-GAAAGGAAAGCGCAACCG-3′ (SEQ ID NO: 264), and the probe was 5′-(FAM)[…](TAMRA)-3′ (SEQ ID NO: 265). For human HIAP1, the forward primer was 5′-[…]-3′ (SEQ ID NO: 266), the reverse primer was 5′-[…]-3′ (SEQ ID NO: 267), and the probe was 5′-(FAM)[…](TAMRA)-3′ (SEQ ID NO: 268). For human XIAP, the forward primer was 5′-[…]-3′ (SEQ ID NO: 269), the reverse primer was 5′-[…]-3′ (SEQ ID NO: 270), and the probe was 5′-(FAM)[…](TAMRA)-3′ (SEQ ID NO: 271). For human GAPDH, the forward primer was 5′-GAAGGTGAAGGTCGGAGTC-3′ (SEQ ID NO: 272), the reverse primer was 5′-GAAGATGGTGATGGGATTC-3′ (SEQ ID NO: 273), and the probe was 5′-(JOE)[…](TAMRA)-3′ (SEQ ID NO: 274). FAM is 6-carboxyfluoroscein, JOE is 6-carboxy-4,5-dichloro-2,7-dimethoxyfluoroscein, and TAMRA is 6-carboxy-N,N,N′,N′-tetramethylrhodamine. FAM and JOE are 5′ reporter dyes, while TAMRA is a 3′ quencher dye.
Relative quantification of gene expression was performed as described in the PE Biosystems manual using GAPDH as an internal standard. The comparative Ct (cycle threshold) method was used for relative quantitation of IAP mRNA levels compared to GAPDH mRNA levels. Briefly, real-time fluorescence measurements were taken at each PCR cycle and the threshold cycle (Ct) value for each sample was calculated by determining the point at which fluorescence exceeded a threshold limit of 30 times the baseline standard deviation. The average baseline value and the baseline SD are calculated starting from the third cycle baseline value and stopping at the baseline value three cycles before the signal starts to exponentially rise. The PCR primers and/or probes for the specific IAPs were designed to span at least one exon-intron boundary separated by 1 kb or more of genomic DNA, to reduce the possibility of amplifying and detecting genomic DNA contamination. The specificity of the signal, and possible contamination from DNA, were verified by treating some RNA samples with either DNase or RNase, prior to performing the reverse transcription and PCR reaction steps.
A library of 15 HIAP1 antisense nucleobase oligomers as oligonucleotides was screened for protein knock-down by western blot analysis and for RNA knock-down by TaqMan, using the primers and probes described in Example 3, above, under two different conditions. HIAP1 RNA levels may be detected using standard Northern blot analyses or RT-PCR techniques. The antisense oligonucleotides were administered to cells under basal conditions or under cycloheximide-induction conditions (24 hour treatment with sub-toxic doses). Cycloheximide (CHX) can lead to a 10- to 200-fold induction of HIAP1 mRNA depending on the cell line treated. […] This effect of CHX is via two distinct mechanisms of action. First, CHX activates NFkB, a known transcriptional inducer of HIAP1, by blocking the de novo synthesis of a labile protein, IkB, which is an inhibitor of NFkB. This effect is mimicked by puromycin, another protein synthesis inhibitor, and by TNF-alpha, which induces a signaling cascade leading to the phosphorylation, ubiquination, and degradation of IkB.
SF295 glioblastoma cells were transfected with lipofectin and oligonucleotide (scrambled survivin, no oligonucleotide, antisense APO 1 to APO 15) or left untreated. […]

The next data set relates to HIAP1 protein. Kind of data set: HIAP1 protein in cycloheximide-induced SF295 cells (western blot). Format: cell-based, human. An excerpt: HIAP1 was detected on a western immunoblot using an affinity-purified anti-rat HIAP1 rabbit polyclonal antibody as a primary antibody and was detected by ECL (Amersham) on X-ray film with a secondary horseradish-peroxidase-conjugated anti-rabbit Ig antibody and a chemiluminescent substrate. The anti-HIAP1 polyclonal antibody is raised against a GST-fusion of the rat HIAP1. This antibody cross-reacts with both human and murine HIAP1 and HIAP2.
(§1) The effect of HIAP1 antisense nucleobase oligomers on HIAP1 protein and mRNA expression was also examined in cells induced to express HIAP1. SF295 cells were transfected with oligonucleotides, or were mock transfected. The transfected cells were then treated with 10 μg/ml cycloheximide for 24 hours to induce 70 kDa HIAP1 mRNA and protein. Protein levels were measured by western blot analysis with an anti-HIAP1 polyclonal antibody, and normalized against actin protein in a re-probing of the same blots. The densitometric scan results were plotted against the mock results (set at 100%) in FIG. 22B. […] The transfection process itself (e.g., mock or scrambled survivin) induces HIAP1 protein compared to the untreated sample as shown on the western immunoblot.

For the next data set, the system named is XIAP protein. The data set can be described thus: XIAP protein knock-down in H460 cells (western blot, densitometry). Format: cell-based, human. The procedure:
FIGS. 3 and 4 are graphs showing the effects of 4×4 mixed backbone (MBO) FG8 or E12 oligonucleotides in amounts of 31 nM (FIG. 3) or 63 nM (FIG. 4). H460 lung carcinoma cells were transfected for 18 hours on one, two, or three consecutive days using 125 nM MBOs and Lipofectamine 2000. Samples for western analysis were harvested at the indicated time. Scanning densitometry was performed, and XIAP protein levels were normalized to GAPDH and compared to a mock control set to 100%. The indicated percentages express % XIAP protein knockdown versus specific scrambled controls.
One day prior to transfection, H460 cells were plated in 6- or 96-well tissue culture plates. Phosphorothioate antisense oligonucleotides were delivered into cells with Lipofectamine 2000 (Life Technologies) in the form of liposome-oligonucleotide complexes. Following a 4.5 or 6 h transfection, the transfection medium was replaced with RPMI medium containing 10% FBS, and the cells incubated for another 24 or 48 h.
The cells or tumor tissue samples were lysed with ice-cold lysis buffer (50 mM Tris, 150 mM NaCl, 2.5 mM EDTA, 0.1% SDS, 0.5% sodium deoxycholate, 1% NP-40, 0.02% sodium azide) containing protease inhibitors (Complete-Mini protease inhibitor tablets; Boehringer Mannheim GmBH, Mannheim, Germany). After incubation for 30 min on ice, samples were centrifuged at 10,000 rpm for 15 min, and stored at −20° C. Protein content in the lysed extracts was determined using a detergent-compatible Bio-Rad assay (Bio-Rad Labs, Hercules, Calif.). Equal amounts of protein (40 μg/lane) were separated on 12% SDS-polyacrylamide gels or 4-15% gradient SDS-polyacrylamide pre-made gels (Bio-Rad) and transferred to nitrocellulose membranes. Primary antibodies against XIAP, Bcl-2 (DAKO, Glostrup, Denmark), Bax (Sigma, St. Louis, Mo.), β-actin (Sigma), caspase-3 (BD PharMingen, San Diego, Calif.), and PARP (BD PharMingen) were used. The secondary antibody was the appropriate horseradish-conjugated anti-mouse or anti-rabbit IgG (Promega, Madison, Wis.). Proteins were detected by enhanced chemiluminescence (ECL; Amersham Pharmacia Biotech, Buckinghamshire, England) and visualized after exposure to Kodak autoradiography film. Scanning densitometry (Molecular Dynamics, Sunnyvale, Calif.) was performed to quantify band intensities by volume/area integration. The amount of XIAP, caspase-3, Bcl-2 and Bax in cells was normalized to their respective lane β-actin levels, upon stripping and reprobing.

Data set [2] deals with HIAP1 mRNA. The data set can be described thus: HIAP1 mRNA in SF295 cells under cycloheximide induction (TaqMan). Format: cell-based, human. On the procedure:
as §1
Controls for this experiment were three oligonucleotides for APO 2: one scrambled sequence (same base composition but random order, 5′-AAGGGCGGCGGAGTGAGAC-3′; SEQ ID NO: 297), one reverse polarity (same base composition, same sequential order but in the opposite direction, 5′-AGAGGACGGAGTCGGAGGC-3′; SEQ ID NO: 298), and one mismatch sequence (containing four base mismatches out of 19 bases, 5′-CGGAGCGTGAGGATGGAGA-3′; SEQ ID NO: 299).

The subject of data set [3] is MDA-MB-435/LCC6 human breast carcinoma xenografts. Kind of data set: Systemic (i.p.) PS-oligonucleotides in LCC6 breast carcinoma xenografts. Format: in vivo, female SCID-RAG2 mice. To be noted: 12.5 mg/kg i.p.; day 35, two weeks after the last treatment. The procedure:
Initial systemic PS-oligonucleotide studies were designed without any chemotherapeutic agents. SCID-RAG2 mice were inoculated with H460 human lung carcinoma cells (s.c. shoulder injection of 10^6 cells) and treatments with G4 and F3 AS PS-oligonucleotides, as well as a scrambled control, were initiated three days after tumor inoculation. Nucleobase oligomer injections were administered i.p. at 12.5 mg/kg three times a week for three weeks. At the end of the treatment period, mean tumor sizes in the groups treated with either G4 or F3 AS oligonucleotides were ˜50% smaller than in the group treated with a scrambled control oligonucleotides (FIG. 15). The same treatment protocol was tested on female SCID-RAG2 mice inoculated orthotopically with MDA-MB-435/LCC6 human breast carcinoma cells. Two weeks after the last treatment (day 35) tumor volumes of mice treated with F3, C5 or G4 AS oligonucleotides were 70%, 60%, and 45%, respectively, smaller than vehicle controls (FIG. 16).
Efficacy experiments were conducted in male RAG2 immunodeficient mice bearing NCI-H460 tumours or female RAG2 mice bearing LCC6 tumors. Treatments were commenced on day 3 after tumor inoculation. Saline (controls), G4 AS oligonucleotides (5 or 15 mg/kg), or G4 SC oligonucleotides (5 or 15 mg/kg) were administered i.p. daily for five doses a week over a three week regimen. Vinorelbine (VNB, 5 or 10 mg/kg) was administered i.v. via the tail vein, either alone or in combination with oligonucleotides, at day 3, 7, 11 and 17 after tumor inoculation. When oligonucleotides were administered in combination with VNB, the drug treatment was performed four hours after ODN treatment.

The test system of the next data set is XIAP mRNA. Kind of data set: XIAP mRNA knock-down in H460 cells (real-time RT-PCR / TaqMan). In kind it is cell-based, human. The gist of the method: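 NCI-H460 cells transfected with phosphorothioate antisense oligonucleotides via Lipofectamine 2000; RNA isolated after 6 h treatment. XIAP mRNA quantified by one-step TaqMan real-time RT-PCR, comparative Ct (threshold 30× baseline SD), normalized to GAPDH and expressed relative to untreated control cells.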

Take “TCATTTGAGCCTGGGAGGT (chemistry not given here) [APO 1]”: in the data set on HIAP1 mRNA [1], the “HIAP1 mRNA levels (in words)” value was “did not cause a stress-induced increase in HIAP1 mRNA” and the “decrease of HIAP1 mRNA compared to mock or scrambled survivin control” value (“decrease of HIAP1 mRNA” below) was roughly 50%. The “activity in the HIAP1 protein and mRNA assays” value (“activity” below) in the data set with HIAP1 protein is “high activity, or had significant activity in both the protein and mRNA assays”.

On to “GAAATTTAGTGGCCAGGAA (chemistry not given here) [APO 8]”, for which, in the data set with HIAP1 mRNA [1], the “HIAP1 mRNA levels (in words)” value is reported as “did not cause a stress-induced increase in HIAP1 mRNA” and the “decrease of HIAP1 mRNA” value was roughly 50%. Further, the “activity” value in the data set on HIAP1 protein is “high activity, or had significant activity in both the protein and mRNA assays”.

Take “CCAGTGGTTTGCAAGCATG (chemistry not given here) [APO 7]”: in the data set with HIAP1 mRNA [1], the “HIAP1 mRNA levels (in words)” value is on record as “did not cause a stress-induced increase in HIAP1 mRNA” and the “decrease of HIAP1 mRNA” value is given as roughly 50%. The “activity” value in the data set on HIAP1 protein was “high activity, or had significant activity in both the protein and mRNA assays”.

For “mUmGmCmACCCTGGATACCmAmUmUmU (antisense NGCACCCNGGANACCANNN; 2'-O-methyl modifications, chemistry not fully specified) [FG8]”, in the data set on XIAP protein, the “effect on XIAP protein levels (in words)” value is listed as “significantly reduced XIAP protein levels”.

Regarding “5′-AAGGGCGGCGGAGTGAGAC-3′ (listed as DNA, chemistry not given here) [H1 sc apo 2, reference compound]”, the “effect on HIAP1 mRNA (and protein) under CHX induction (in words)” value in the data set with HIAP1 mRNA [2] was “did not change HIAP1 mRNA levels at all”.

Regarding “ACCATTCTGGATACCAGAA (chemistry not fully specified) [C5 AS]”, in data set [3], the “tumor volumes smaller than vehicle controls” value is given as 60%. Further, in the data set with XIAP protein, the “effect on XIAP protein levels (in words)” value is given as “did not show sequence specific effects”.

In the case of “CAAGTACTCACACCTTGGA (chemistry not given here) [APO 12]”, in the data set on HIAP1 mRNA [1], the “HIAP1 mRNA levels (in words)” value was “did not cause a stress-induced increase in HIAP1 mRNA” and the “decrease of HIAP1 mRNA” value is listed as roughly 50%. Besides, the “activity” value in the data set on HIAP1 protein is “high activity, or had significant activity in both the protein and mRNA assays”.

Turning to “GGGCTCAAGTAATTCTCTT (chemistry not given here) [APO 15]”, in the data set with HIAP1 mRNA [1], the “HIAP1 mRNA levels (in words)” value is listed as “did not cause a stress-induced increase in HIAP1 mRNA” and the “decrease of HIAP1 mRNA” value is on record as roughly 50%. In addition, in the data set on HIAP1 protein, the “activity” value was “high activity, or had significant activity in both the protein and mRNA assays”.

Take “TGTCAGTACATGTTGGCTC (antisense; chemistry not fully specified) [Code E12]”: the “XIAP down-regulation H460 RNA” value in the data set with XIAP mRNA came to 74%. In the data set with XIAP protein, the “effect on XIAP protein levels (in words)” value is given as “significantly reduced XIAP protein levels”.

The values are drawn from US8012944B2, “Method for treating cancer using IAP antisense oligomer and chemotherapeutic agent” (Pharmascience Inc., priority 2003, dated 2011).
